This note sets out measurements from patent US20080287398A1, “COLD MENTHOL RECEPTOR-1 ANTAGONISTS” (priority 2007, published 2008).

Values joined by “and” are separate entries in the source; they are usually repeats but may differ in a detail not shown here. Identical values can stand only once. Like-named read-outs stand apart in the source and are kept apart here.

The test system of test [1] is Male Sprague Dawley rats. The experiment in a line: Inhibition of icilin-induced wet-dog shakes in rats. The class given is in vivo. Conditions: rat; 30 mg/kg i.p.; 15′ pre icilin; wet-dog shakes vs vehicle.
Test [2] deals with T1, canine TRPM8 (Canis lupus familiaris, UniProt Q1A7N1).
T1 construct: expressed in transfected cells
T1 sequence (Q1A7N1 1-1104): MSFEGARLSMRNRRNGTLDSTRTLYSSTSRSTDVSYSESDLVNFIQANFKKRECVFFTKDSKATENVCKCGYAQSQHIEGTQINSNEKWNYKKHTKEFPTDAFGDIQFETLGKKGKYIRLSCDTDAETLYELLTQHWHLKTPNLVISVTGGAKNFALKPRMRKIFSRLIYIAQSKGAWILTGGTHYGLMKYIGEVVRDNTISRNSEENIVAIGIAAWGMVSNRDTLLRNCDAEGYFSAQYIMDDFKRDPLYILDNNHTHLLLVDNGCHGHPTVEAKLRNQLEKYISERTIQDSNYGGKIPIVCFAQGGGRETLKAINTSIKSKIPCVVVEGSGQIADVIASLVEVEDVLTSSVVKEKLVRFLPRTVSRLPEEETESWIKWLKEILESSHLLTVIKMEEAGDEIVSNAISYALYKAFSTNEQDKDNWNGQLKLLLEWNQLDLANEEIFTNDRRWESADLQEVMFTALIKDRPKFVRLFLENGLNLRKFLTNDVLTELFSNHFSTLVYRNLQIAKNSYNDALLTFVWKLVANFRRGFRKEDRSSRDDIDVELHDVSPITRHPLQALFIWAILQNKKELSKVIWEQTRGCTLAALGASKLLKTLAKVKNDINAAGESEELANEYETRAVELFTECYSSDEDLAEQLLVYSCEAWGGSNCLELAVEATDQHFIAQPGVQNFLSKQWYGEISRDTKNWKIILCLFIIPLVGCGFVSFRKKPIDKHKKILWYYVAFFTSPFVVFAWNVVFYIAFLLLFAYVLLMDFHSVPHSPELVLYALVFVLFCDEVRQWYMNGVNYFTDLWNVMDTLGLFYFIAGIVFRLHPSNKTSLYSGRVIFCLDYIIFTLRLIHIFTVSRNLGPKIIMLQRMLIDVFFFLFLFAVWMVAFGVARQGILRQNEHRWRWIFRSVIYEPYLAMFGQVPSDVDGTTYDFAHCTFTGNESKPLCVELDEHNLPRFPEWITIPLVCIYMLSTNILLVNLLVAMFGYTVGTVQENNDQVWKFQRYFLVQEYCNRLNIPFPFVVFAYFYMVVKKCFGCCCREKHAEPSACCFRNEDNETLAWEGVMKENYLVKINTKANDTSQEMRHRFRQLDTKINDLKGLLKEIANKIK
The experiment in a line: In vitro canine TRPM8 functional assay (Ca2+-sensitive dye, FLIPR/FDSS, icilin activation). The class given is cell-based. Conditions: HEK293 cells expressing canine TRPM8, icilin activation; for inhibition at 1 µM: HEK293, 1 μM compound, read-out: % I (1 μM); for IC50: eight-point dose-response; for % I (0.5 μM): 0.5 μM compound. In a few lines: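 HEK293 cells stably expressing canine TRPM8, loaded with Calcium 3 dye, preincubated with compound for 5 min before icilin at a concentration giving ~80% maximal response. Ca2+ fluorescence by FLIPR or FDSS; basal-subtracted, normalized to % maximal response, quadruplicate wells, sigmoidal fit for EC50/IC50.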

Test [3] deals with Sprague-Dawley rats. Briefly: CFA-induced paw radiant heat hypersensitivity. Format: in vivo, rat. The note with it: for inhibition in vivo at 30 mg/kg: read-out: % Reversal. How it is done: Intraplantar injection of Complete Freund's Adjuvant (CFA) in rodents results in a long-lasting inflammatory reaction, characterized by a pronounced hypersensitivity to both thermal and mechanical stimuli. This hypersensitivity peaks between 24-72 hours following injection and can last for several weeks. […] This paradigm also may be conducted with a multiple dosing or a prophylactic dosing regime designed to alter the course of hyperalgesia development. This test predicts the analgesic, anti-allodynic and antihyperalgesic effect of numerous effective clinical agents, including NSAIDS such as acetaminophen, aspirin and ibuprofen, and opioids such as morphine.
Each rat was placed in a test chamber on a warm glass surface and allowed to acclimate for approximately 10 minutes. A radiant thermal stimulus (beam of light) was then focused through the glass onto the plantar surface of each hind paw in turn. The thermal stimulus was automatically shut off by a photoelectric relay when the paw was moved or when the cut-off time was reached (20 seconds for radiant heat at ˜5 Amps). An initial (baseline) response latency to the thermal stimulus was recorded for each animal prior to the injection of CFA. Twenty-four hours following intraplantar CFA injection, the response latency of the animal to the thermal stimulus was then re-evaluated and compared to the animal's baseline response time. […] Immediately following the post-CFA latency assessment, test compound or vehicle (usually Solutol, hydroxypropyl methylcellulose, hydroxypropyl beta-cyclodextrin or PEG-400) was administered i.p. or p.o. to rats. […] The percent reversal (% R) of hypersenstivitiy was calculated according to the following formula:
% Reversal=(Treatment Response-CFA Response)/(Baseline Response-CFA Response)×100.

Test [4] addresses T1, canine TRPM8. The experiment in a line: TRPM8 patch clamp assay (whole-cell, HEK293 cells). Format: cell-based. How it is done:
For patch clamp experiments, HEK293 cells stably transfected with canine TRPM8 were cultured in DMEM supplemented with 10% fetal bovine serum, 100 units/ml penicillin, 100 μg/ml streptomycin and 1 mg/ml G418. Cells were maintained at 37° C. and in 5% CO2.
The extracellular solution contained (in mM): NaCl, 132; EGTA, 1; KCl, 5.4; MgCl2, 0.8; HEPES, 10; glucose, 10; pH=7.4. Recordings were performed using the conventional whole-cell patch clamp technique, 1-2 days after plating cells onto glass coverslips at densities appropriate for single cell recording. Currents were amplified by a patch clamp amplifier and filtered at 2 kHz (Axopatch 200B, Molecular Devices, Union City, Calif.). Menthol (100 μM) was applied to the cell at 0.5 ml/min via a gravity-fed perfusion system. Recordings involving menthol activation were performed at 22° C.
In experiments where temperatures were varied, temperature ramps were generated by cooling the perfusate in an in-line cooler (Model SC-20, Warner Instruments, Hamden, Conn.) controlled by a temperature controller (Model CL-100, Warner Instruments). The temperature in the vicinity of the recorded cell was measured with a custom-made miniature thermo-microprobe connected to a monitoring thermometer (Model TH-8, Physitemp, Clifton, N.J.), and sampled using Digidata 1322A and pClamp 9.0 (Molecular Devices), as were the currents concurrently measured in the whole-cell patch clamp mode. The current was continuously sampled (at 100 Hz) at a holding potential of −60 mV.
Compounds were diluted from 10 mM DMSO stocks (stored at −20° C.) into an extracellular solution either containing 100 μM menthol or subjecting to cooling. Increasing concentrations of a compound were applied to a cell in a cumulative manner and concentration-dependent responses were measured after steady-state activation was achieved by either 100 μM menthol or cooling to 10° C. A saturating concentration of a reference antagonist was applied at the end of an experiment (either in the presence of 100 μM menthol or 10° C. temperature) to establish the baseline from which all the other measurements were subtracted.
Percentage inhibition by a compound was calculated as follows: 100×(1−Icomp/I0); where Icomp and I0 are steady-state current amplitudes in either the presence or absence of a concentration of the compound.
On the technique in general: The patch-clamp technique gives a direct electrical read-out from membranes.

In test [5] the test system is male SD rats. The experiment in a line: Chronic constriction injury (CCI) model of neuropathic pain, acetone-induced hypersensitivity. The class given is in vivo. Conditions: rat. The method, then:
Through the mesh floor a series of five applications of acetone (0.05 mL/application) was sprayed onto the bottom of the paw using a multidose syringe device. A positive response took the form of an abrupt withdrawal or lifting of the paw. The percentage of positive responses from the five trials represented the individual's overall response that was then averaged over the entire treatment group. […] An ascending dose response relationship (as in Table 10 below) was generated by addition of successive doses of test compound followed by re-assessment of behavior.

Test [6] relates to rats. Briefly: Reversal of icilin-induced behaviors (wet-dog shakes) in rats. Conditions: rat; 30 mg/kg p.o.; 1 h post-icilin. The class given is in vivo. The method, then:
In this paradigm, icilin-induced shaking was counted for 10 minutes followed by administration of a compound of Formula (I). The diminution of shaking behavior is represented as a percent inhibition relative to icilin-induced shakes in the absence of test compound administration, as described by the following formula: % Inhibition=[1−(WDS count following test compound dose/WDS count prior to test compound dose)]×100.

Setting [7] is: HEK293 cells stably transfected with canine TRPM8, 100 μM menthol, 22° C.
Setting [8] is: HEK293, read-out: % I (0.5 μM), 0.5 μM compound.
Setting [9] is: IC50, mode of activation Menthol (100 μM), HEK293 cells stably transfected with canine TRPM8, 100 μM menthol, 22° C.
Where [10] appears, read: po, rat, 30 mg/kg p.o., time 1 h.
Setting [11] is: read-out: IC50, mode of activation Cold (10° C.), HEK293 cells stably transfected with canine TRPM8, cooling to 10° C.
Setting [12] is: read-out: IC50, mode of activation Menthol (100 μM), HEK293 cells stably transfected with canine TRPM8, 100 μM menthol, 22° C.
[13] abbreviates: rat, 30 mg/kg p.o., time 2 h (printed 2 h or 2).

As a reminder, the % Inhibition is the percentage by which the read-out fell short of the control. One may read the IC50 as the concentration at which inhibition is half-maximal. Take `Cc1c(C(Cc2ccc(F)c(F)c2)P(=O)(OC(C)C)OC(C)C)sc2ncccc12` (stereo not drawn) [Cpd 34, [2-(3,4-Difluoro-phenyl)-1-(3-methyl-thieno[2,3-b]pyridin-2-yl)-ethyl]-phosphonic acid diisopropyl ester]: the “% Inhibition” value in test [1] is on record as 28.8%. Besides, the inhibition at 1 µM in test [2] amounted to 100%. Besides, the IC50 in test [2] (read-out: IC50) is 0.12 µM and 0.15 µM and 0.2 µM.

As for `CCCP(=O)(CCC)C(OCc1ccc(F)c(F)c1)c1sc2ccccc2c1C` (stereo not drawn) [Cpd 42], the “% Inhibition” value in test [1] came out at 70.6%. For the same compound, in test [2], the inhibition at 1 µM turned out to be 100%. Besides, in test [2] (read-out: IC50), the IC50 is 0.15 µM and 0.14 µM.

Take `Cc1c(C(Cc2ccc(F)c(F)c2)P(=O)(OCC(C)(C)C)OCC(C)(C)C)sc2ccccc12` (stereo not drawn) [Cpd 53, [2-(3,4-Difluoro-phenyl)-1-(3-methyl-benzo[b]thiophen-2-yl)-ethyl]-phosphonic acid bis-(2,2-dimethyl-propyl) ester]: in test [1], the “% Inhibition” value came out at 65.6%. Further, in test [2], the inhibition at 1 µM was determined as 100%. Also, the concentration for half-maximal inhibition (IC50) in test [2] (read-out: IC50) was 0.22 µM and 0.26 µM. Further, the inhibition in vivo at 30 mg/kg in test [3] (ip, 0.5 h, rat, 30 mg/kg i.p., time 30′) came to 77%; in test [3] (po, rat, 30 mg/kg p.o., time 2 h (printed 2 h or 2)), 44%.

For `CCOP(=O)(OCC)C(Cc1ccc(OC(F)(F)F)cc1)c1sc2ccccc2c1Br` (stereo not drawn) [Cpd 155, [1-(3-Bromo-benzo[b]thiophen-2-yl)-2-(4-trifluoromethoxy-phenyl)-ethyl]-phosphonic acid diethyl ester], the IC50 is 12.5 nM in test [4] (setting [7]); 0.046 µM and 0.12 µM and 0.09 µM in test [2] (IC50 (μM)). In addition, the inhibition at 0.5 µM in test [2] (setting [8]) came out at 104%. Moreover, the inhibition in vivo at 30 mg/kg in test [3] (Rattus norvegicus, po, 1 h) was 138%.

For the compound `CC(C)OP(=O)(OC(C)C)[C@H](Cc1ccc(F)c(F)c1)c1sc2ccccc2c1Br` [Cpd 235, (R)-[1-(3-Bromo-benzo[b]thiophen-2-yl)-2-(3,4-difluoro-phenyl)-ethyl]-phosphonic acid diisopropyl ester], the IC50 in test [4] (setting [9]) is 59.2 nM; in test [2] (read-out: IC50) it was 0.253 µM. The inhibition in vivo at 30 mg/kg in test [3] (setting [10]) came to 45%. The “% of Allodynic Baseline” value in test [5] (30 mg/kg p.o., preRx 1 hr) was found to be 34.3%.

In the case of `CCOP(=O)(OCC)C(Cc1ccc(F)cc1)c1sc2ccccc2c1Br` (stereo not drawn) [Cpd 238, [1-(3-Bromo-benzo[b]thiophen-2-yl)-2-(4-fluoro-phenyl)-ethyl]-phosphonic acid diethyl ester], the IC50 in test [4] (setting [7]) came out at 0.53 nM; in test [2] (IC50 (μM)), 0.044 µM. Also, in test [2] (setting [8]), the inhibition at 0.5 µM was found to be 104%. Also, the inhibition in vivo at 30 mg/kg in test [3] (Rattus norvegicus, po, 2 h) was 56%.

On to `CC(C)OP(=O)(OC(C)C)C(Cc1ccc(F)c(C(F)(F)F)c1)c1sc2ccccc2c1Br` (stereo not drawn) [Cpd 241, [1-(3-Bromo-benzo[b]thiophen-2-yl)-2-(4-fluoro-3-trifluoromethyl-phenyl)-ethyl]-phosphonic acid diisopropyl ester], for which the IC50 in test [4] (setting [9]) worked out at 1.6 nM; in test [2] (read-out: IC50), 0.038 µM. Further, the inhibition at 0.5 µM in test [2] (HEK293, 0.5 μM compound, read-out: % I (0.5 μM)) is 102%. Further, the inhibition at 1 µM in test [2] was found to be 103%. In addition, the inhibition in vivo at 30 mg/kg in test [3] (setting [10]) came out at 72%.

As to “(S)-[1-(3-Bromo-benzo[b]thiophen-2-yl)-2-(4-fluoro-phenyl)-ethyl]-phosphonic acid diisopropyl ester [Cpd 239]”, the IC50 in test [4] (setting [11]) was 5.8 nM; in test [4] (setting [12]) it was 3 nM; in test [2] (read-out: IC50), 0.037 µM and 0.027 µM and 0.031 µM. The “% I (0.5 μM)” value in test [2] is 103, 103%. Also, the “% Reversal” value in test [3] (setting [13]) turned out to be 36%. Further, the “% Inhibition” value in test [6] was 48.4%. Besides, the “% of Allodynic Baseline” value in test [5] (30 mg/kg p.o., preRx 1 hr) was 29.4%.

For “(S)-[1-(3-Bromo-benzo[b]thiophen-2-yl)-2-(4-trifluoromethoxy-phenyl)-ethyl]-phosphonic acid diisopropyl ester [Cpd 236]”, the IC50 in test [4] (setting [11]) came out at 2.9 nM; in test [4] (setting [12]), 1.4 nM. Besides, the “% I (0.5 μM)” value in test [2] is given as 103, 103%. Moreover, in test [3] (setting [13]), the “% Reversal” value was determined as 25%. For the same compound, in test [6], the “% Inhibition” value turned out to be 36.8%. For the same compound, the “% of Allodynic Baseline” value was 28.6% in test [5] (30 mg/kg p.o., preRx 4 hr) and 68.8% in test [5] (100 mg/kg p.o., preRx 4 hr).
